Laboratory results: ChEMBL document CHEMBL3108756, “Evaluation of aminohydantoins as a novel class of antimalarial agents” (ACS Med Chem Lett, 2014)

Test system: Plasmodium falciparum
Test: Antimalarial activity against chloroquine-sensitive Plasmodium falciparum 3D7 infected in […] after 72 hrs by SYBR Green I-based fluorescence method
Format: functional, organism-based
Settings: 3D7, 72 h

SMILES	IC50 [nM]
COc1ccc(C2(c3ccc(OC)cc3)NC(=N)N(c3ccccc3)C2=O)cc1	100000
COc1cccc(C2(c3cccc(-c4cccnc4)c3)NC(=N)N(C3CCCCC3)C2=O)c1 (racemic)	787
COc1ccc(C2(c3ccc(OC)cc3)NC(=N)N(C)C2=O)cc1	7920
N=C1NC(c2cccc(-c3cccnc3)c2)(c2cccc(-c3cccnc3)c2)C(=O)N1C1CCCCC1	725
COc1ccc(C2(c3ccc(OC)cc3)NC(=N)N(C3CCNCC3)C2=O)cc1	> 5000
COc1ccc(C2(c3ccc(OC)cc3)NC(=N)N(C3CCC3)C2=O)cc1	722
COc1ccc(C2(c3ccc(OC)cc3)NC(=N)N(Cc3ccccc3)C2=O)cc1	855
CCCN1C(=N)NC(c2ccc(OC)cc2)(c2ccc(OC)cc2)C1=O	1140
N=C1NC(c2ccccc2)(c2cccc(OCc3ccccc3)c2)C(=O)N1C1CCCCC1 (racemic)	641
COc1ccc(C2(c3ccc(OC)cc3)NC(=N)N(C3CCC(O)CC3)C2=O)cc1 (stereo not drawn)	14800
CCN1C(=N)NC(c2ccc(OC)cc2)(c2ccc(OC)cc2)C1=O	3950
COc1ccc(C2(c3cccc(-c4ccccc4)c3)NC(=N)N(C3CCCCC3)C2=O)cc1 (racemic)	1490
Cc1ccc(C2(c3ccc(C)cc3)NC(=N)N(C3CCCCC3)C2=O)cc1	1260
N=C1NC(c2ccc(OC(F)(F)F)cc2)(c2ccc(OC(F)(F)F)cc2)C(=O)N1C1CCCCC1	2200
COc1cccc(C2(c3ccccc3)NC(=N)N(C3CCCCC3)C2=O)c1 (racemic)	917

Compounds with a lower IC50, results first:

IC50 [nM]	SMILES
318	COc1cccc(C2(c3cccc(-c4ccncc4)c3)NC(=N)N(C3CCCCC3)C2=O)c1 (racemic)
466	CCOc1ccc(C2(c3ccc(OCC)cc3)NC(=N)N(C3CCCCC3)C2=O)cc1
533	COc1ccc(C2(c3ccccc3)NC(=N)N(C3CCCCC3)C2=O)cc1 (racemic)
533	Cc1cccc(C2(c3cccc(C)c3)NC(=N)N(C3CCCCC3)C2=O)c1
512	COc1ccc(C2(c3ccc(OC)cc3)NC(=N)N(CCCc3ccccc3)C2=O)cc1
595	COc1ccc(C2(c3cccc(-c4cccnc4)c3)NC(=N)N(C3CCCCC3)C2=O)cc1 (racemic)
424	N=C1NC(c2ccccc2)(c2cccc(Oc3ccccc3)c2)C(=O)N1C1CCCCC1 (racemic)
436	COc1ccc(C2(c3ccc(OC)cc3)NC(=N)N(C3CCN(C(=O)OC(C)(C)C)CC3)C2=O)cc1
